Consider seven compounds from ChEMBL document CHEMBL1201862, “PubChem BioAssay data set” (2004).

Active and inactive are the calls of the source.

One experiment concerns Cryptococcus neoformans. Put plainly: PubChem AID 686997. Format: functional, organism-based.
Experiment [1] deals with G-protein coupled receptor 55 (Homo sapiens, UniProt Q9Y2T6). Put plainly: inhibition of LPI-stimulated GPR55 beta-arrestin translocation – imaging, U2OS, beta-arrestin-GFP, LPI agonist, primary screen (AID 2013).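 Further: antagonist potency measured as reduced agonist-driven arrestin aggregation.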 Format: functional.
Experiment [2] deals with Nucleotide-binding oligomerization domain-containing protein 2 (Homo sapiens, UniProt Q9HC29). Put plainly: inhibition of NOD2-driven NF-kB reporter – cell-based, luminescence, uHTS, HEK293 (AID 1566). Format: functional.
The target of experiment [3] is T1, Nucleotide-binding oligomerization domain-containing protein 1 (Homo sapiens, UniProt Q9Y239).
T1 sequence (Q9Y239 whole entry): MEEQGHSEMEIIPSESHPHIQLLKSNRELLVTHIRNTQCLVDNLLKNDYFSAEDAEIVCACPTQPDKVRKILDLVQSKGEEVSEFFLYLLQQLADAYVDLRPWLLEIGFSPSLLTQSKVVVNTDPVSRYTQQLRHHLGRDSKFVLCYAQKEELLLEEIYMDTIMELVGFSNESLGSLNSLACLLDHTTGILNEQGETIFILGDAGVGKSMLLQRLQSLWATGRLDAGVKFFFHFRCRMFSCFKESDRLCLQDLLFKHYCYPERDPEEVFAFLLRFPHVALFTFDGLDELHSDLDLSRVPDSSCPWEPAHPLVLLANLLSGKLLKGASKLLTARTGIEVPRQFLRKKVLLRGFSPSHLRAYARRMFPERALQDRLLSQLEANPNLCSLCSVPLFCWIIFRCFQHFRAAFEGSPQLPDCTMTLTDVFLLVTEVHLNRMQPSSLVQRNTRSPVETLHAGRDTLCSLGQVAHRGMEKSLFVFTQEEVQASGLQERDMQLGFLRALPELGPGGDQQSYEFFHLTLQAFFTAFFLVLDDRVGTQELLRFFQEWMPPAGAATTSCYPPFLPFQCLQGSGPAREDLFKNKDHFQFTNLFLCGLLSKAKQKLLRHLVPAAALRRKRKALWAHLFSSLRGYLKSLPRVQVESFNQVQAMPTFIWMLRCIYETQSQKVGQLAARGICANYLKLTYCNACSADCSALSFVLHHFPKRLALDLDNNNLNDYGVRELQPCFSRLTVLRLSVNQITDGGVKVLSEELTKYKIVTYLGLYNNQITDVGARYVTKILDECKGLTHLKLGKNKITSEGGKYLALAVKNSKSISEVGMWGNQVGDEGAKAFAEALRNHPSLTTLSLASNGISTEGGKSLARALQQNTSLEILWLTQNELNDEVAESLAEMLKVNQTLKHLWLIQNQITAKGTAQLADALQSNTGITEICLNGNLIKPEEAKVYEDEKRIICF
Put plainly: blockers of NOD1 pathway activity – revised, SAR follow-up (AID 2333). The class given is functional.

In experiment [4] the test system is HEK293. Put plainly: NOD2 signaling inhibitors in MDP-stimulated cells, cell-based, uHTS, luminescence (AID 2001). The note with it: Homo sapiens. Format: functional.
A further experiment deals with Tumor necrosis factor (Homo sapiens, UniProt P01375). Put plainly: analog potency on TNFa NF-kB signaling – cell-based, revised, SAR follow-up (AID 2337). Format: functional.
Experiment [5] deals with HEK293. Put plainly: cells. The class given is functional, cell-based. The conditions noted are these: Homo sapiens.
The subject of experiment [6] is HEK293. Put plainly: cells. Format: functional, cell-based. The conditions noted are these: Homo sapiens. This is another data set of the same source.
The subject of experiment [7] is HEK293. Put plainly: cells. The class given is functional, cell-based. The note with it: Homo sapiens. The source holds these as a separate data set.
For experiment [8], the system named is HEK293. Put plainly: inhibition of NOD1-driven NF-kB reporter – cell-based, luminescence, uHTS, primary screen (AID 1578). The class given is functional. The note with it: Homo sapiens.
Experiment [9] has as its system HEK293. Put plainly: cells. The note with it: Homo sapiens.
In experiment [10] the target is T2, Voltage-gated N-type calcium channel alpha-1B subunit/Amyloid beta A4 precursor protein-binding family A member 1 (Homo sapiens, UniProt Q00975+Q02410). The class given is protein assay.
In experiment [11] the target is T2, Voltage-gated N-type calcium channel alpha-1B subunit/Amyloid beta A4 precursor protein-binding family A member 1. The class given is protein assay. This is another data set of the same source.
The target of a further experiment is Hexokinase (Trypanosoma brucei, UniProt Q38C41). Put plainly: Confirmation assay for inhibitors of Trypanosoma brucei hexokinase 1-Analogue-first series. [Related pubchem assays (depositor defined):AID1430, AID1632, AID2516, AID2560, AID2579, AID2600, AID449725, AID492951]. Format: functional.
The target in experiment [12] is T3, Kappa-type opioid receptor (Homo sapiens, UniProt P41145). Put plainly: SAR analysis of small molecule antagonists of the kappa opioid receptor via a luminescent beta-arrestin assay - Set 3. [Related pubchem assays (depositor defined):AID1777, AID1778, AID1785, AID1786, AID1966, AID2133, AID2136, AID2285, AID2495]. The class given is functional.
Experiment [13] addresses Delta-type opioid receptor (Homo sapiens, UniProt P41143). Put plainly: SAR Analysis of Antagonists of the DOR Receptor using an Image-Based Assay - Set 3. [Related pubchem assays (depositor defined):AID1777, AID1785]. The class given is functional.
For another experiment, the target named is Mu-type opioid receptor (Homo sapiens, UniProt P35372). Put plainly: SAR Analysis of Antagonists of the MOR Receptor using an Image-Based Assay - Set 3. [Related pubchem assays (depositor defined):AID1777, AID1785, AID1786, AID1966, AID2133, AID2136, AID2284, AID2285, AID2420]. The class given is functional.
For experiment [14], the target named is T3, Kappa-type opioid receptor. Put plainly: SAR analysis of Antagonists of the Kappa Opioid Receptor (KOR) using an Image-Based Assay - Set 3. [Related pubchem assays (depositor defined):AID1777, AID1785]. Format: functional.
The target in experiment [15] is T4, Tyrosine-protein phosphatase non-receptor type 7 (Homo sapiens, UniProt P35236).
T4 sequence (P35236 whole entry): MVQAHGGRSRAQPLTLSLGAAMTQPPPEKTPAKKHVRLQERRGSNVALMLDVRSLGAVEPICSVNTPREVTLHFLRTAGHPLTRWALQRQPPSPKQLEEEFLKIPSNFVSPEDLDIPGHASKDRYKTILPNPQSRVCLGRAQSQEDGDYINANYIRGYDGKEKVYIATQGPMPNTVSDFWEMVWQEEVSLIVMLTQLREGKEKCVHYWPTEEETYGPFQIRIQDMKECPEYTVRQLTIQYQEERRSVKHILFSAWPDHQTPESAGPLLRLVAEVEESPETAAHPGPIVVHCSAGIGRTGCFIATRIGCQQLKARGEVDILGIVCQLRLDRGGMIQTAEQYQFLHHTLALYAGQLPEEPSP
Put plainly: redox-active compounds inhibiting HePTP phosphatase – biochemical, fluorescence, mechanism study (AID 2068). Format: functional.

A further experiment concerns the target Genome polyprotein (dengue virus type 2, UniProt P29990). Put plainly: flavivirus cap methylation enzyme inhibition – biochemical, confirmation dose response, primary screen (AID 588689). Format: functional.
Experiment [16] has as its target T5, Rac GTPase-activating protein 1 (Homo sapiens, UniProt Q9H0H5).
T5 sequence (Q9H0H5 whole entry): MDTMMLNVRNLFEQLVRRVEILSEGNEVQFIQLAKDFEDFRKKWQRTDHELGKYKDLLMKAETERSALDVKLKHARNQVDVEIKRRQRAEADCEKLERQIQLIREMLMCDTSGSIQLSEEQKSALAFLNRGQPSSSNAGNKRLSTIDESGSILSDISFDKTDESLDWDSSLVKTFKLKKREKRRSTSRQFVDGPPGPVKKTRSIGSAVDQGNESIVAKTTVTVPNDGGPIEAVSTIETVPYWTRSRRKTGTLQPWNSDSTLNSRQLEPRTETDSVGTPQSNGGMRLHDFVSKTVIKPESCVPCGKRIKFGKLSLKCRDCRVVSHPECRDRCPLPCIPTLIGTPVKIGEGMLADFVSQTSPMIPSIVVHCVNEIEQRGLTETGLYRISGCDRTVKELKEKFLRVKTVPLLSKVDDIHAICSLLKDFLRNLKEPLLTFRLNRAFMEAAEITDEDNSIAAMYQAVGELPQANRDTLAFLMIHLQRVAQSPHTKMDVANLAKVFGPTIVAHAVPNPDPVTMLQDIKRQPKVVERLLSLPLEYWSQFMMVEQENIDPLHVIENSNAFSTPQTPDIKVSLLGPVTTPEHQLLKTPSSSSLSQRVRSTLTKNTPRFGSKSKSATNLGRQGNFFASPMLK
Put plainly: blockers of MgcRacGAP-driven Rac1 GTP hydrolysis – biochemical, ADP Hunter fluorescence, primary and confirmatory, confirmation (AID 624330). Format: functional.

The target of experiment [17] is T6, Polyadenylate-binding protein 1 (Homo sapiens, UniProt P11940). Put plainly: MLLE binding blockers, Cy5 peptide tracer – biochemical, fluorescence polarization, Cy5-PAM2 peptide, secondary, miRNA deadenylation inhibitor project, dose response (AID 602260). The class given is functional. The conditions noted are these: read-out: IC50_Mean. (In general: Polarisation of emitted light reports the rotation of a fluorescent probe.)

In experiment [18] the target is Histone-lysine N-methyltransferase NSD2 (Homo sapiens, UniProt O96028). Format: biochemical.
Experiment [19] has as its target T7, Zinc finger protein mex-5 (Caenorhabditis elegans, UniProt Q9XUB2).
T7 sequence (Q9XUB2 whole entry): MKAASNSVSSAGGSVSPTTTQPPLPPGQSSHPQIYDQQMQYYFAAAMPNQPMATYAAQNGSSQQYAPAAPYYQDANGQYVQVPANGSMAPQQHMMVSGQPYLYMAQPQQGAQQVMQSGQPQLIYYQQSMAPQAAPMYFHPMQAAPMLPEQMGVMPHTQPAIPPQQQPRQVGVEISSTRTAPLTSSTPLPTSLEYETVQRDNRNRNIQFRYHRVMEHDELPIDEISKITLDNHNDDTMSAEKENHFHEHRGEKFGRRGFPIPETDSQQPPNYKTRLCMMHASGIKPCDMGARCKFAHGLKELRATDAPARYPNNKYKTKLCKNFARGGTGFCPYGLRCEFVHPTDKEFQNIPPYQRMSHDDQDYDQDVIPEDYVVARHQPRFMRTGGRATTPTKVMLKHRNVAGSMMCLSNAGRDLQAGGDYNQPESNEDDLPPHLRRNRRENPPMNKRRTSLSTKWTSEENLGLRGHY
Put plainly: potency of MEX-5 RNA-binding blockers – biochemical, C. elegans, fluorescence polarization, dose response (AID 1960).

Experiment [20] addresses Induced myeloid leukemia cell differentiation protein Mcl-1 (Homo sapiens, UniProt Q07820). Format: functional.
Experiment [21] concerns the target T8, RNA-binding protein pos-1 (Caenorhabditis elegans, UniProt G5EF15).
T8 sequence (G5EF15 whole entry): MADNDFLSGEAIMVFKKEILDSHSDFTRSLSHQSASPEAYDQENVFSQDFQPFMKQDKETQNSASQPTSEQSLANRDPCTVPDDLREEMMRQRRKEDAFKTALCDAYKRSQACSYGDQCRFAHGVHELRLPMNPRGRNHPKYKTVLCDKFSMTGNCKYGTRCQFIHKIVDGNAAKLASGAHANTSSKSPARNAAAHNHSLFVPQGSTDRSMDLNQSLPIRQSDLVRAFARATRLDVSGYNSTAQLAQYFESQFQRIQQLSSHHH
Put plainly: disruptors of C. elegans POS-1 RNA interaction – biochemical, fluorescence polarization, dose response (AID 1964).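 Further: purified POS-1 fused to maltose binding protein made in E. coli; potency of compounds blocking POS-1 binding to fluorescent RNA.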

Experiment [22] addresses T6, Polyadenylate-binding protein 1. Put plainly: MLLE domain peptide-binding blockers, IC50 – biochemical, fluorescence polarization, FITC-PAM2 peptide, dose response (AID 602259). The conditions noted are these: read-out: IC50_Mean. Format: functional.
Another experiment deals with Troponin, cardiac muscle (Homo sapiens, UniProt P19429+P45379+P63316). Put plainly: compounds desensitizing RTF to calcium – biochemical, fluorescence, cardiac regulated thin filaments, triplicate IC50, dose response (AID 504742). Format: protein-complex assay.

For the compound `S=C(Nc1ccc(Cl)cc1Cl)Nc1ccccc1Oc1ccccc1`, in the experiment with Cryptococcus neoformans, the half-maximal activity concentration (AC50) is 44.9 µM (active). The IC50 in [1] was 4.08 µM (active).

`COc1ccc(N2CCN(C(=O)c3ccc(CNS(=O)(=O)c4ccc(C)cc4)cc3)CC2)cc1`: the figures for the EC50 (in experiment [2]; in the experiment on HEK293 [8]) were > 20 µM (inactive) and 7.09 µM (active), respectively. For the same compound, the IC50 in experiment [3] was > 20 µM (inactive); in the experiment on HEK293 [4] it was 12.5 µM (inactive); at Tumor necrosis factor it was > 20 µM (inactive); in the experiment with HEK293 [5] it was 10.1 µM (active); with HEK293 [6] it was > 20 µM (inactive); in the experiment on HEK293 [7], 17.5 µM (active). The IC50 in the experiment with HEK293 [9] is > 20 µM (inactive).

With `Cc1c(C)c2c(OCC(=O)Nc3cccnc3)cc3c(c2oc1=O)CCC(C)(C)O3`, the IC50 in experiment [10] is 12.1 µM (active); in experiment [11], > 50 µM (inactive).

In the case of `CN(C)c1ccc(NC(=O)Cn2sc3ccccc3c2=O)cc1`, on Hexokinase, the IC50 was 7.29 µM (active).

For `COc1ccc(CN(CCNC(=O)c2ccc(CNS(=O)(=O)c3ccc(C)cc3)cc2)C(C)C)cc1`, the IC50 in experiment [12] is 2.29 µM (active); in [13], > 32 µM (inactive); on Mu-type opioid receptor, > 32 µM (inactive); in [14], 0.532 µM (active).

Take `O=C(NCCc1ccccc1)Nc1ccc2nc(-c3ccco3)c(-c3ccco3)nc2c1`: in experiment [15], the IC50 is 0.472 µM (active).

With `O=C(O)c1ccc2nc(-c3ccco3)c(-c3ccco3)nc2c1`, the IC50 was 51 µM (active) on Genome polyprotein; 159 µM (active) in experiment [16]; > 66 µM (inactive) in experiment [17]; > 54 µM (active) in experiment [20]; 53.2 µM (inactive) in [22]; 20.9 µM (inactive) on Troponin, cardiac muscle. Besides, in experiment [18], the AC50 is 10.8 µM (active). The results for the EC50 in experiment [19] and in [21] were 10.1 µM (active) and 19.5 µM (inconclusive), respectively.

One may read the AC50 as the concentration giving half of the maximal activity seen. Broadly, the EC50 is the midpoint of the concentration-response curve.
